Assay: Stability of 6555 with sulfur-containing and other stabilizers, 50 mM AAPH at 80° C. for 30 mins (Tables 7-9)
Type: physicochemical
Conditions: for 6555 Remaining (%): 50 mM AAPH, 80° C., 0.5 hr, (+) mode, sodium ascorbate 5 mM, sodium gentisate 2 mM, sodium metabisulfite 5 mM
Excerpt: The effect of specified sulfur-containing compounds and other stabilizer compounds (including non-sulfur-containing stabilizer compounds) and mixtures of sulfur-containing compounds and non-sulfur-containing stabilizer compounds with the boronic acid compound 6555 (structure shown above) at various pH values.

6555 Remaining (%) (disodium hydrosulfite 5 mM, pH 4.4): 95.3% | 6555 Remaining (%) (pH 4.5): 95.6% | 6555 Remain (%) (Sodium ascorbate (2.5 mM) +, Sodium gentisate (1 mM) +, Stabilizer (2.5 mM) Sodium sulfite, pH 5.1, SID 90517, AAPH 80° C. 30 mins): 94.1% | 6555 Remain (%) (ascorbate (2.5 mM) +, gentisate (1 mM) +, Sodium hydrosulfite 2.5 mM, pH 4.4, SID 90537, AAPH 80° C. 30 mins): 91.7% | 6555 Remain (%) (ascorbate (2.5 mM) +, gentisate (1 mM) +, Sodium hydrosulfite 5.0 mM, pH 4.5, SID 90542, AAPH 80° C. 30 mins): 94.3% | 6555 Remain (%) (ascorbate (2.5 mM) +, gentisate (1 mM) +, Sodium hydrosulfite 10.0 mM, pH 4.5, SID 90532, AAPH 80° C. 30 mins): 94.1% | 6555 Remain (%) (ascorbate (2.5 mM) +, gentisate (1 mM) +, Sodium hydrosulfite 25.0 mM, pH 4.3, SID 90539, AAPH 80° C. 30 mins): 94.1% | 6555 Remain (%) (ascorbate (2.5 mM) +, gentisate (1 mM) +, Sodium hydrosulfite 40.00 mM, pH 4.0, SID 90538, AAPH 80° C. 30 mins): 94.6% | 6555 Remain (%) (ascorbate (2.5 mM) +, gentisate (1 mM) +, Sodium sulfite 2.5 mM, pH 4.5, SID 90616, AAPH 80° C. 30 mins): 67.9% | 6555 Remain (%) (ascorbate (2.5 mM) +, gentisate (1 mM) +, Sodium sulfite 5.0 mM, pH 4.6, SID 90617, AAPH 80° C. 30 mins): 90.3% | 6555 Remain (%) (ascorbate (2.5 mM) +, gentisate (1 mM) +, Sodium sulfite 10.0 mM, pH 4.8, SID 90613, AAPH 80° C. 30 mins): 93.8% | 6555 Remain (%) (ascorbate (2.5 mM) +, gentisate (1 mM) +, Sodium sulfite 25.0 mM, pH 5.1, SID 90517, AAPH 80° C. 30 mins): 94.1% | 6555 Remain (%) (ascorbate (2.5 mM) +, gentisate (1 mM) +, Stabilizer (1 mM) NAM, pH 4.6, SID 90629, AAPH 80° C. 30 mins): 30.8% | 6555 Remain (%) (ascorbate (2.5 mM) +, gentisate (1 mM) +, Stabilizer (1 mM) Sodium hydrosulfite, pH 4.5, SID 90629, AAPH 80° C. 30 mins): 47.4% | 6555 Remain (%) (ascorbate (2.5 mM) +, gentisate (1 mM) +, Stabilizer (1 mM) Sodium metabisulfite, pH 4.5, SID 90628, AAPH 80° C. 30 mins): 71.1% | 6555 Remain (%) (ascorbate (2.5 mM) +, gentisate (1 mM) +, Stabilizer (2.5 mM) Acetone sodium bisulfite, pH 4.6, SID 90523, AAPH 80° C. 30 mins): 94.0% | 6555 Remain (%) (ascorbate (2.5 mM) +, gentisate (1 mM) +, Stabilizer (2.5 mM) Acetone sodium bisulfite, pH 4.6, SID 90621, second listing, AAPH 80° C. 30 mins): 73.1% | 6555 Remain (%) (ascorbate (2.5 mM) +, gentisate (1 mM) +, Stabilizer (2.5 mM) D-mannitol, pH 4.5, SID 90641, AAPH 80° C. 30 mins): 15.5% | 6555 Remain (%) (ascorbate (2.5 mM) +, gentisate (1 mM) +, Stabilizer (2.5 mM) MSM(dimethyl sulfone), pH 4.5, SID 90598, AAPH 80° C. 30 mins): 8.2% | 6555 Remain (%) (ascorbate (2.5 mM) +, gentisate (1 mM) +, Stabilizer (2.5 mM) N-Acetyl-L-phenylalanine, pH 4.0, SID 90610, AAPH 80° C. 30 mins): 20.1% | 6555 Remain (%) (ascorbate (2.5 mM) +, gentisate (1 mM) +, Stabilizer (2.5 mM) N-Acetyl-L-tyrosine, pH 4.0, SID 90589, AAPH 80° C. 30 mins): 13.6% | 6555 Remain (%) (ascorbate (2.5 mM) +, gentisate (1 mM) +, Stabilizer (2.5 mM) NAC, pH 4.1, SID 90582, AAPH 80° C. 30 mins): 31.4% | 6555 Remain (%) (ascorbate (2.5 mM) +, gentisate (1 mM) +, Stabilizer (2.5 mM) NAM, pH 4.0, SID 90543, AAPH 80° C. 30 mins): 90.8% | 6555 Remain (%) (ascorbate (2.5 mM) +, gentisate (1 mM) +, Stabilizer (2.5 mM) NAM, pH 4.5, SID 90623, second listing, AAPH 80° C. 30 mins): 53.3% | 6555 Remain (%) (ascorbate (2.5 mM) +, gentisate (1 mM) +, Stabilizer (2.5 mM) Potassium metabisulfite, pH 4.4, SID 90622, second listing, AAPH 80° C. 30 mins): 93.7% | 6555 Remain (%) (ascorbate (2.5 mM) +, gentisate (1 mM) +, Stabilizer (2.5 mM) Potassium metabisulfite, pH 4.5, SID 90526, AAPH 80° C. 30 mins): 94.1% | 6555 Remain (%) (ascorbate (2.5 mM) +, gentisate (1 mM) +, Stabilizer (2.5 mM) Sodium L-Glutamate monohydrate, pH 4.7, SID 90604, AAPH 80° C. 30 mins): 8.2% | 6555 Remain (%) (ascorbate (2.5 mM) +, gentisate (1 mM) +, Stabilizer (2.5 mM) Sodium formaldehydesulfoxylate dihydrate, pH 4.4, SID 90527, AAPH 80° C. 30 mins): 91.7% | 6555 Remain (%) (ascorbate (2.5 mM) +, gentisate (1 mM) +, Stabilizer (2.5 mM) Sodium formaldehydesulfoxylate dihydrate, pH 4.5, SID 90620, second listing, AAPH 80° C. 30 mins): 58.0% | 6555 Remain (%) (ascorbate (2.5 mM) +, gentisate (1 mM) +, Stabilizer (2.5 mM) Sodium hydrosulfite, pH 4.3, SID 90539, AAPH 80° C. 30 mins): 94.1% | 6555 Remain (%) (ascorbate (2.5 mM) +, gentisate (1 mM) +, Stabilizer (2.5 mM) Sodium hydrosulfite, pH 4.4, SID 90537, second listing, AAPH 80° C. 30 mins): 91.7% | 6555 Remain (%) (ascorbate (2.5 mM) +, gentisate (1 mM) +, Stabilizer (2.5 mM) Sodium metabisulfite, pH 4.4, SID 90515, AAPH 80° C. 30 mins): 93.8% | 6555 Remain (%) (ascorbate (2.5 mM) +, gentisate (1 mM) +, Stabilizer (2.5 mM) Sodium metabisulfite, pH 4.5, SID 90619, second listing, AAPH 80° C. 30 mins): 93.4% | 6555 Remain (%) (ascorbate (2.5 mM) +, gentisate (1 mM) +, Stabilizer (2.5 mM) Sodium sulfite, pH 4.5, SID 90616, second listing, AAPH 80° C. 30 mins): 67.9% | 6555 Remain (%) (ascorbate (2.5 mM) +, gentisate (1 mM) +, Stabilizer (2.5 mM) Thiourea, pH 4.5, SID 90607, AAPH 80° C. 30 mins): 84.1% | 6555 Remain (%) (ascorbate (2.5 mM) +, gentisate (1 mM) +, Stabilizer none, pH 5.1, SID 90525, AAPH 80° C. 30 mins): 16.7% | 6555 Remain (%) (ascorbate none, gentisate none, Stabilizer (2.5 mM) NAM, pH 4.0, SID 90640, AAPH 80° C. 30 mins): 85.9% | 6555 Remain (%) (ascorbate none, gentisate none, Stabilizer none, pH 4.6, SID 90646, AAPH 80° C. 30 mins): 55.8% | 6555 Remain (%) (mM: ascorbate 0, gentisate 0, NAM 5, metabisulfite 5, hydrosulfite 0, pH 4.3, SID 90664, 50 mM AAPH 80° C. 30 mins): 88.8% | 6555 Remain (%) (mM: ascorbate 2.5, gentisate 1, NAM 2.5, metabisulfite 2.5, hydrosulfite 0, pH 4.5, SID 90637, 50 mM AAPH 80° C. 30 mins): 94.8% | 6555 Remain (%) (mM: ascorbate 2.5, gentisate 1, NAM 10, metabisulfite 2.5, hydrosulfite 0, pH 4.0, SID 90638, 50 mM AAPH 80° C. 30 mins): 93.2% | 6555 Remain (%) (mM: ascorbate 2.5, gentisate 1, NAM 25, metabisulfite 2.5, hydrosulfite 0, pH 4.0, SID 90631, 50 mM AAPH 80° C. 30 mins): 92.2% | 6555 Remain (%) (mM: ascorbate 5, gentisate 2, NAM 0, metabisulfite 5, hydrosulfite 0, pH 4.5, SID 90643, 50 mM AAPH 80° C. 30 mins): 95.6% | 6555 Remain (%) (mM: ascorbate 5, gentisate 2, NAM 0, metabisulfite 5, hydrosulfite 5, pH 4.4, SID 90686, 50 mM AAPH 80° C. 30 mins): 95.3% | 6555 Remain (%) (mM: ascorbate 5, gentisate 2, NAM 5, metabisulfite 0, hydrosulfite 0, pH 4.5, SID 90642, 50 mM AAPH 80° C. 30 mins): 66.5% | 6555 Remain (%) (mM: ascorbate 5, gentisate 2, NAM 5, metabisulfite 0, hydrosulfite 5, pH 4.5, SID 90701, 50 mM AAPH 80° C. 30 mins): 95.7% | 6555 Remain (%) (mM: ascorbate 5, gentisate 2, NAM 5, metabisulfite 5, hydrosulfite 0, pH 4.5, SID 90639, 50 mM AAPH 80° C. 30 mins): 95.8% | 6555 Remain (%) (mM: first column (ascorbate) 2.5, gentisate 1, NAM 0, metabisulfite 2.5, hydrosulfite 0, pH 4.5, SID 90619, 50 mM AAPH 80° C. 30 mins): 93.4%
Compound: C[C@@H](NC(=O)c1ccc(CNC(=O)CN2CCN(CC(=O)O)CCN(CC(=O)O)CCN(CC(=O)O)CC2)cc1)C(=O)N1CCC[C@H]1B(O)O [compound 6555, DOTA-aminomethyl-Bz-D-Ala-boroPro]
